Experiment [1] can be described thus: Luminescence Cell-Based Dose Confirmation HTS to Identify Inhibitors of Platelet Dense Granule Release. [Related pubchem assays: 1663 (Primary HTS), 1678 (Summary of Project)]. It counts as functional.
In experiment [2] the target is Luciferin 4-monooxygenase (Photinus pyralis, UniProt P08659). Nature of the experiment: firefly luciferase enzyme inhibitors, dose response, biochemical, luminescence (AID 1891).
Experiment [3] can be described thus: Luminescence Cell-Based Dose Response HTS to Identify Inhibitors of 5'UTR Stem-Loop Driven Prion Protein mRNA Translation in H4 Neuroglioblastoma Cells. [Related pubchem assays: 1827 (Project Summary), 1813 (Primary HTS)]. It counts as functional.
Experiment [4] in a line: inhibitors of SNCA 5'UTR-driven reporter translation, confirmation, H4 neuroglioma cells, luminescence (AID 1988). It counts as functional, cell-based.
A short description of experiment [5]: inhibitors of firefly luciferase expression or activity, dose response, H4 neuroglioma cells, luminescence (AID 1990). It counts as functional, cell-based.
Experiment [6] relates to Streptococcus. Description: Group A Streptococcus viability loss, dose response, counter-screen for streptokinase expression inhibitor project, luminescence, BacTiterGlo (AID 1915).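 Also: potency for reduction of bacterial viability or growth.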 It counts as functional, organism-based. (The purpose of a counterscreen is to sort out artefacts and off-target activity.)
In experiment [7] the test system is Streptococcus sp. 'group A'. Nature of the experiment: growth inhibition of control SK(-) GAS strain, dose response, counter-screen for streptokinase expression inhibitor project, luminescence, kanamycin, BacTiterGlo, confirmation (AID 1900). It counts as functional, organism-based.
Experiment [8] addresses T1, Carboxy-terminal domain RNA polymerase II polypeptide A small phosphatase 1 (Homo sapiens, UniProt Q9GZU7).
T1 sequence (Q9GZU7 whole entry): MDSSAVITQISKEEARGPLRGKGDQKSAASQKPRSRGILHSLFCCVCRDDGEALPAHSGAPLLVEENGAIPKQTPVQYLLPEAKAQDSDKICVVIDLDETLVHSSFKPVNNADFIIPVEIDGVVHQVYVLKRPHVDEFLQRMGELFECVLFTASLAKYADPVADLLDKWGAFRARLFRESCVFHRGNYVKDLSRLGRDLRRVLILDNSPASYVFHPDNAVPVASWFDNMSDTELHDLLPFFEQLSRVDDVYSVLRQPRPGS
Nature of the experiment: inhibitors of CTDSP1, concentration-response testing, biochemical assay, absorbance-based, actives from ultra-high-throughput screening (AID 540297). It counts as functional.

The nature of experiment [9]: growth suppression of PTEN-null colon cells, dose response, cell-based, HCT116 PTEN knockout (AID 1047).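 Also: HCT116 colon tumor cells with PTEN knocked out; cells exposed to compound for 60 hours before readout; potency for loss of cell viability measured by luminescence.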 It counts as functional.
Experiment [10] can be described thus: growth suppression of beta-catenin-knockout colon cells, dose response, cell-based, HCT116, human colon tumor (AID 1045).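 Also: HCT116 colon tumor cells with beta catenin knocked out; cells exposed to compound for 60 hours.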 Type of experiment: functional.
Experiment [11] in a line: NIH-3T3 fibroblast cytotoxicity, dose response, cytotoxicity control, cell-based, fluorescence, Alamar Blue, secondary assay (AID 2327).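 Also: NIH-3T3 mouse fibroblasts cultured with fluconazole at 8 µg/mL.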 Type of experiment: functional. For orientation: Resazurin is reduced to fluorescent resorufin, in cell work by metabolically active cells.
Experiment [12] can be described thus: C. albicans growth with fluconazole, confirmation, fluorescence, retest (AID 2467). Type of experiment: functional, cell-based.
In experiment [13] the target is T2, Polyadenylate-binding protein 1 (Homo sapiens, UniProt P11940). Description: PABP1 MLLE–PAM2 binding inhibitor potency, dose response, biochemical, fluorescence polarization, FITC-PAM2 peptide (AID 602259). As to conditions: read-out: IC50_Mean. Type of experiment: functional.
T2 sequence (P11940 whole entry): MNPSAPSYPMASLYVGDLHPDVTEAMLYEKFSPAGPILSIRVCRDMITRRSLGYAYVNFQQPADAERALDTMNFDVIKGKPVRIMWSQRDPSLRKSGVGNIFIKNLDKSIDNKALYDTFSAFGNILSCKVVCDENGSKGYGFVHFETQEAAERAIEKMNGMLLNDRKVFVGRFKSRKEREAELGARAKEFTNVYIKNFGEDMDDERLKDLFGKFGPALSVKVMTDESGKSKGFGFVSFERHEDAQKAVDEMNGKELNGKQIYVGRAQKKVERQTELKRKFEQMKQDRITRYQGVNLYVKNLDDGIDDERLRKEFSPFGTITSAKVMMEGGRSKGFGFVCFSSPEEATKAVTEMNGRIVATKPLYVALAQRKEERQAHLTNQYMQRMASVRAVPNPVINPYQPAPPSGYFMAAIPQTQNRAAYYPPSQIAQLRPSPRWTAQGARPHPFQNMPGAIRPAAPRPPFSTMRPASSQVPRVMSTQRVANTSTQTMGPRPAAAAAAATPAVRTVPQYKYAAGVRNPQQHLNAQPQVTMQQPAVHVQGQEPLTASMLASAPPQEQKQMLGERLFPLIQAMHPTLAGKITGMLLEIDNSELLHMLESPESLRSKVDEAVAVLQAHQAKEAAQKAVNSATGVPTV
The target in experiment [14] is T2, Polyadenylate-binding protein 1. Nature of the experiment: PABP1 MLLE–PAM2 interaction inhibitors, dose response, miRNA deadenylation inhibitor project, biochemical, fluorescence polarization, Cy5-PAM2 peptide, secondary (AID 602260). Type of experiment: functional. The conditions noted are these: read-out: IC50_Mean. A general note: Polarisation of emitted light reports the rotation of a fluorescent probe.

The nature of experiment [15]: Luminescence Cell-Based Dose Retest to Confirm Inhibitors of Cancer Stem Cells. [Related pubchem assays (depositor defined):AID2717, AID2721]. Type of experiment: functional. The conditions noted are these: Homo sapiens.
For experiment [16], the system named is INS1. Nature of the experiment: beta cell apoptosis inhibitors, cytokine rescue, dose response, luminescence, retest (AID 449756).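 Also: cell death triggered by IL-1 beta plus TNF-alpha plus IFN-gamma mixture; protective hits raise ATP signal compared with cytokine alone wells.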 Type of experiment: functional, cell-based. As to conditions: Rattus norvegicus.

Counter-ions that a name gives are not always drawn. Activity calls are given as the source filed them. Rule as the data show it, for most assays here: actives have a measured EC50 and inactives only a lower limit. Bounds are passed on as bounds.

Chain of Luciferin 4-monooxygenase (P08659 whole entry): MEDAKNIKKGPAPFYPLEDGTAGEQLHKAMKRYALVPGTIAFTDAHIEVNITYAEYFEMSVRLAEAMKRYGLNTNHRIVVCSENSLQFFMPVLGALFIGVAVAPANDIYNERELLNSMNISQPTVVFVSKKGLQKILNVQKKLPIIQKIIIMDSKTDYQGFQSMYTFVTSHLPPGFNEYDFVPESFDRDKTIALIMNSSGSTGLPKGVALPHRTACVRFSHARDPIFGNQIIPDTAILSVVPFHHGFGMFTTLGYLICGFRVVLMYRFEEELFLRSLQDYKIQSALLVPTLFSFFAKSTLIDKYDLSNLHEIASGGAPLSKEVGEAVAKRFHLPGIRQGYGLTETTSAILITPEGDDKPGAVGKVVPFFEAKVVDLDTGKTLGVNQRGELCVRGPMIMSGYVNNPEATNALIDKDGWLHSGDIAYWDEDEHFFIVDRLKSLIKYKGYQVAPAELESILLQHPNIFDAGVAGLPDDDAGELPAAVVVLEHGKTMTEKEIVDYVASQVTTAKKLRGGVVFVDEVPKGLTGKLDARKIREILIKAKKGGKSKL

For the compound `O=C(CCNC(=O)C1CCN(S(=O)(=O)c2ccc(F)cc2)CC1)NCc1ccc(Cl)cc1`, the 50% effective concentration (EC50) in experiment [1] and in experiment [2] was > 112 µM (not active) throughout.
Regarding `COc1ccccc1N1CCN(S(=O)(=O)CCNC(=O)c2ccc(Br)o2)CC1`, the half-maximal effective concentration (EC50) in [3], in experiment [4] and in experiment [5] was > 120 µM (not active) in each case.
As to `O=C(Nc1nnc(SCc2c(Cl)cccc2Cl)s1)C1CC(=O)N(c2ccc3c(c2)OCCO3)C1` (stereo unspecified), the EC50 (commonly the concentration giving half of the maximal effect) in [6] is 31.8 µM (active); in experiment [7], 44.2 µM (active). The IC50 in [8] is 4.6 µM (active).
Regarding `CCOc1ccc(NC(=O)C(=O)NCCN2CCN(C(=O)c3ccc(C)cc3)CC2)cc1`, the EC50 in experiment [3] was 64.8 µM (active); in experiment [4], 63.7 µM (active); in experiment [5] it was 14.7 µM (active).
As for `COc1cc2[nH]c(=O)n(CCCCCC(=O)N3CC=C(c4ccccc4)CC3)c(=O)c2cc1OC`, the EC50 in experiment [9] was 21.9 µM (active); in experiment [10], 27.9 µM (active).
As to `CCN(c1ccccc1)S(=O)(=O)c1ccc(Cl)c(NC(=O)CN2C(=O)NC3(CCCC3)C2=O)c1`, the EC50 in experiment [11] was > 150 µM (inconclusive); in [12], 4.42 µM (active).
In the case of `COc1cc2c(cc1OC)C(c1ccccc1O)N(C1CC(=O)N(c3ccccc3)C1=O)CC2` (stereo unspecified), the IC50 in experiment [13] and in experiment [14] was > 66 µM (inactive) throughout.
In the case of `O=C(Nc1cc(S(=O)(=O)Nc2ccc(Cl)cc2)ccc1N1CCCCC1)c1ccc(F)cc1Cl`, the IC50 in experiment [13] and in [14] was > 66 µM (inactive) each time. The AC50 (commonly the concentration giving half of the maximal activity seen) in [15] was 2.07 µM (active).
Consider `C=CCSC1=C(C#N)C(c2ccccc2OCC)C(C#N)C(=O)N1` (stereo unspecified), for which the IC50 in experiment [13] and in [14] was > 66 µM (inactive) each time.
Turning to `CCc1cc2c(=O)c(-c3cnn(-c4ccccc4)c3)c(C)oc2cc1OCC(=O)Nc1ccc(F)c(F)c1`, the EC50 was 4.93 µM (active) in experiment [9] and 4.88 µM (active) in experiment [10].
Turning to `Cc1cccc(OCC(O)CN2CCN(S(=O)(=O)c3ccc(C)cc3C)CC2)c1` (stereo unspecified), the EC50 is > 120 µM (not active) in [3], 15.9 µM (active) in [4] and > 120 µM (not active) in [5].
As to `CC(=O)c1ccc(NC(=O)CCS(=O)(=O)c2ccc3c(c2)n(C)c(=O)c(=O)n3C)cc1`, the IC50 in [8] was > 80 µM (inactive).
With `COCCN(Cc1cc2cc3c(cc2n2nnnc12)OCO3)C(=O)c1ccccc1F`, the EC50 in experiment [3], in experiment [4] and in [5] was > 120 µM (not active) throughout.
For the compound `Cc1c(NC(=S)NC(=O)CSc2ccc(Cl)cc2)cccc1C(=O)O`, the IC50 in [13] and in experiment [14] was > 66 µM (inactive) throughout.
With `Oc1nc(SCCOc2cccc3ccccc23)nc2ccccc12`, the EC50 in experiment [3] was > 120 µM (not active); in [4], > 120 µM (not active); in experiment [5], 15.4 µM (active).
Consider `C=CCN(C(=O)CCC(=O)O)C1CC(=O)N(c2ccc(OC)cc2)C1=O` (stereo unspecified), for which the 50% effective concentration (EC50) in [1] and in [2] was > 112 µM (not active) each time.
In the case of `O=S(=O)(NCCc1cn2ccccc2n1)c1ccc2c(c1)CCCC2`, the EC50 in experiment [1] and in [2] was > 112 µM (not active) in each case.
For `Cc1c(C(=O)C(=O)N2c3ccc(F)cc3CCC2C)c2ccccc2n1C` (stereo unspecified), the EC50 in experiment [3] is 12.2 µM (active); in experiment [4], 5.47 µM (active); in experiment [5], 10.5 µM (active).
`CC(C)(C)c1cc(C(=O)NNc2ccc(OC(F)(F)F)cc2)n(Cc2ccccc2)n1`: the EC50 was > 160 µM (inactive) in experiment [11] and 3.05 µM (active) in experiment [12].
For `O=C(Nn1cnnc1)c1ccccc1CCc1ccccc1`, the 50% effective concentration (EC50) in [1] and in [2] was > 112 µM (not active) in each case.
For the compound `COc1ccc(C(=O)NC2(C(F)(F)F)N=C3SCCN3C2=O)cc1` (stereo unspecified), the IC50 in experiment [13] and in [14] was > 66 µM (inactive) in each case.
Consider `CCOC(=O)COc1ccc(S(=O)(=O)N2CCN(c3ccccc3F)CC2)cc1`, for which the EC50 in [11] is > 150 µM (inconclusive); in [12], > 38 µM (not active).
In the case of `Cc1ccccc1C(=O)NCCNc1ccc([N+](=O)[O-])cc1`, the EC50 in experiment [3], in experiment [4] and in experiment [5] was > 120 µM (not active) each time.
Consider `N#Cc1c(NC(=O)c2nc3ncccn3n2)sc2c1CCCCC2`, for which the EC50 in experiment [11] is > 150 µM (inactive); in experiment [12], 0.403 µM (active).
As to `Cc1c(NC(=S)NC(=O)c2cccc3ccccc23)cccc1C(=O)O`, the IC50 in [13] and in experiment [14] was > 66 µM (inactive) each time.
Turning to `CCOC(=O)C1=C(C)N(C)C(C)=C(C(=O)OCC)C1c1ccc(C(=O)OC)cc1`, the EC50 is > 120 µM (not active) in experiment [3], 37.9 µM (active) in [4] and 35.5 µM (active) in experiment [5].
As to `Cc1c(N=N/C(C#N)=C(\O)c2ccc(Cl)cc2)c(=O)n(-c2ccccc2)n1C`, the concentration giving a half-maximal response (EC50) in experiment [6] was 9.3 µM (active); in experiment [7] it was 0.528 µM (active); in [3] it was 9.48 µM (active); in [4], 8.7 µM (active); in [5] it was 9.5 µM (active). For the same compound, the AC50 in experiment [16] is 2.08 µM (active).
For `COc1ccccc1NC(=O)CN1CCN(c2ccccc2OC)CC1`, the EC50 is > 160 µM (inactive) in experiment [11] and > 38 µM (not active) in experiment [12].
In the same order, the values of `O=C(Nc1cc(F)cc(F)c1)c1ccc(NCCCN2CCCCCC2)c([N+](=O)[O-])c1` are 105 µM (active) and > 38 µM (not active).
Take `CCC(=O)NCCc1nc2ccccc2n1Cc1ccccc1`: the EC50 in experiment [1] and in experiment [2] was > 112 µM (not active) each time.
In the case of `Nc1cccc(-c2nc3ccccc3s2)c1`, the EC50 in experiment [1] was 7.77 µM (active); in experiment [2] it was 3.81 µM (active).
In the case of `Cc1ccc(S(=O)(=O)CC(=O)Nc2nnc(C(C)(C)C)s2)cc1`, the IC50 in experiment [13] and in experiment [14] was > 66 µM (inactive) throughout.
Consider `CC1CCN(c2ccc(NC(=S)NC(=O)c3ccc(-c4cccc([N+](=O)[O-])c4)o3)cc2)CC1`, for which the IC50 in experiment [13] and in experiment [14] was > 66 µM (inactive) each time.
Consider `Cc1ccccc1-n1c(=O)cc(N2CCN(C(=O)c3ccco3)CC2)[nH]c1=O`, for which the EC50 in experiment [1] and in experiment [2] was > 112 µM (not active) in each case.
On to `O=C(O)CC(SCC(=O)Nc1ccc(S(=O)(=O)N2CCCC2)cc1)C(=O)O` (stereo unspecified), for which the IC50 in experiment [13] and in experiment [14] was > 66 µM (inactive) throughout.
For the compound `COc1cccc(-n2c(N)c(C(=O)Nc3c(C)n(C)n(-c4ccccc4)c3=O)c3nc4ccccc4nc32)c1`, the EC50 in experiment [1] and in experiment [2] was > 112 µM (not active) each time.
Regarding `COc1ccc(Nc2ccc(N3C(=O)CC(C)C3=O)cc2[N+](=O)[O-])cn1` (stereo unspecified), the IC50 in experiment [13] was 48.4 µM (inactive); in experiment [14] it was > 66 µM (inactive).
As for `Cc1nc(NS(=O)(=O)c2ccc(Br)cc2)c2c3c(sc2n1)CCC3`, the EC50 in experiment [11] was > 160 µM (inactive); in experiment [12] it was 1.93 µM (active).
Take `COc1cc(SC#N)ccc1/N=C/c1c(C)[nH]n(-c2ccc(C)c(C)c2)c1=O`: the EC50 in [9] is 8.81 µM (active); in experiment [10], 8.18 µM (active). For the same compound, the AC50 was 1.41 µM (active) in experiment [15] and 4.24 µM (active) in [16].
`CN(C)CCCN1c2ccccc2CCc2ccc(Cl)cc21` [CLOMIPRAMINE HYDROCHLORIDE]: the EC50 in experiment [9] is 9.89 µM (active); in [10], 10.3 µM (active).
For `C=CC[N+]1(C)CC[C@]23c4c5ccc(O)c4O[C@H]2C(=O)CC[C@@]3(O)[C@H]1C5` (stereo partly specified) [NALOXONE METHIODIDE], the IC50 in experiment [8] was 9.73 µM (active).

The record behind these values is ChEMBL document CHEMBL1201862, “PubChem BioAssay data set” (2004).
